Results from patent US8597660B2, “Therapeutic approach to neurodegenerative disorders using a TFP5-peptide” (The United States of America, as represented by the …, priority 2010, dated 2013).
Entries after “also recorded” stand apart in the source; their conditions may differ.

Columns and labels:
Cdk5/P25 [1] = molecular target: T1, Cdk5/P25 (Rattus norvegicus, UniProt Q03114); assay: In vitro kinase assay on Cdk5 immunoprecipitates of Aβ1-42-treated cortical neurons with added P5 peptide; type: biochemical; conditions: P5 0.45 μM or above
T1 construct: endogenous in cells; host or cells: E-18 rat cortical neurons treated with 10 uM Abeta1-42
Description: Kinase assays were performed as previously described (Veeranna, et al., J Neurosci 18(11), 4008-4021, 1998). Briefly, 7 days in culture (7 DIC) primary rat cortical neurons were infected with P25, P35, Cdk5 wild-type, dominant negative-Cdk5 and P5 using the lentiviral gene delivery as described earlier. Cdk5 was immunoprecipitated using the polyclonal C8 antibody overnight at 4° C. and immunoglobulin isolated using Protein A sepharose beads for 2 hours at 4° C. Immunoprecipitates were washed three times with lysis buffer and then once with 1× kinase buffer containing 20 mM Tris-Cl pH 7.4, 1 mM EDTA, 1 mM EGTA, 10 mM MgCl2, 10 mM sodium fluoride and 1 mM sodium orthovanadate. Endogenous Cdks were immunoprecipitated from HEK 293 cells using their respective antibodies and treated as above. Kinase assays were performed in the same buffer containing 1 mM DTT, 0.1 mM ATP and 0.185 MBq [γ-32P] ATP with 20 μg of histone H1 as the substrate. […]
To determine the minimum dose at which the P5 peptide is an efficient inhibitor of Cdk5/P25 hyperactivity under physiological conditions, cortical neurons were treated with Aβ1-42 to induce the expression of P25 and Cdk5 hyperactivation, Cdk5 immunoprecipitates were prepared and the effect of different concentrations of P5 was evaluated (FIG. 6).

tau phosphorylation = assay: Aβ-induced tau phosphorylation in cortical neurons, Western blot; type: cell-based, rat; conditions: Aβ 6 h
Description: (§1) Primary cultures of rat cortical neurons were prepared from E-18 rat fetuses as described previously (Zheng et al., J Biol Chem 278(26), 24026-24032, 2003). After 7 days, cells were infected independently or co-infected with empty vector (EV), the constructs of P5, P25, P35, wild-type Cdk5 and dominant negative Cdk5 (changing Lys33 to Thr33) using the Adenoviral vector (pAdTrack-CMV) packaging system as described above. […] The cells were fixed for immunocytochemistry analyses (ICC) or lysed with lysis buffer for immunoprecipitation and Western blot analyses. Cortical neuron cultures were prepared and plated on the cover slips as described. Human embryo kidney cells (HEK293) were grown as described previously (Zheng et al., Eur J Biochem 269(18), 4427-4434, 2002). In these studies HEK293 cells on day 1, or neurons on day 5, were transfected with or without Myc-P5-GFP using Lipofectamine 2000 following the manufacturer's instructions.
Western blot analysis was performed as previously described (Zheng et al., Eur J Biochem 269(18), 4427-4434, 2002). In brief, an equal amount of total protein (20 μg/lane) was resolved on a 4-20% SDS polyacrylamide gel and blotted onto a polyvinylidene difluoride membrane. This membrane was incubated in blocking buffer containing 20 mM Tris-HCl (pH 7.4), 150 mM NaCl, and 0.1% (vol/vol) Tween 20 (TTBS) plus 5% dry milk (w/v) for 1 hour at room temperature followed by incubation overnight at 4° C. in primary antibodies (see antibodies). The membranes were then washed four times in TTBS (5 minutes/each) followed by incubation in secondary antibody (goat-antimouse or goat anti-rabbit IgG (H+L)-horseradish peroxidase (HRP) conjugate at a dilution of 1:3000) for 1 hour at room temperature. Western blots were analyzed using the Amersham Enhanced Chemiluminescence (ECL) kit following the manufacturer's instructions (GE Healthcare, Piscataway, N.J.).
Amyloid plaques and neurofibrillary tangles, pathological hallmarks of several neurodegenerative disorders, are linked to deregulated Cdk5 and neuronal death. According to one model, β amyloid, being toxic, may evoke abnormal calcium influx into neurons which activates calpains. […] Hyperactivation of Cdk5, leads to the aberrant phosphorylation of tau and neurofilaments in a number of neurodegenerative diseases including AD and ALS. For example, primary cortical neurons, when treated with Aβ1-42 are induced to form Cdk5/P25 complexes, hyperactive Cdk5 activity, hyperphosphorylation of tau, and neuronal apoptosis. To determine whether P5 will inhibit endogenous tau phosphorylation induced by Aβ treatment in cortical neurons, 7 day old cortical neurons, infected with empty vector (EV) or with P5 were treated with Aβ for 6 hours, lysed and prepared for Cdk5 immunoprecipitation and kinase assay. Aβ treatment causes an approximate 3-fold increase in endogenous Cdk5 activity as visualized by histone H1 phosphorylation (FIG. 4A, panel 5, lane 2; FIG. 4B).
; FIG. 4D). […] Tau antibodies p-Ser404, PHF antibody AT180 (recognizes p-Thr231) and p-Ser422 antibodies were used to observe whether P5 affects other tau phosphorylation residues (FIGS. 4E, 4F). […]. Tau 5 recognizes total tau, nonphosphorylated as well as phosphorylated.

Cdk5/P25 [2] = molecular target: Cdk5/P25 (Homo sapiens, UniProt Q00535); assay: Kinase assay of Cdk5 immunoprecipitates from cortical neurons infected with Cdk5/P25 with or without P5; type: cell-based; parameters: expressed in transfected cells; host or cells: E-18 rat cortical neurons, adenoviral infection (pAdTrack-CMV / AdEasy); conditions: E-18 rat cortical neurons co-infected with P5
Description: as §1
Kinase assays were performed as previously described (Veeranna, et al., J Neurosci 18(11), 4008-4021, 1998). Briefly, 7 days in culture (7 DIC) primary rat cortical neurons were infected with P25, P35, Cdk5 wild-type, dominant negative-Cdk5 and P5 using the lentiviral gene delivery as described earlier. […]

Cdk5/P25 (Homo sapiens, UniProt Q00535), sequence (Q00535 whole entry, species assumed): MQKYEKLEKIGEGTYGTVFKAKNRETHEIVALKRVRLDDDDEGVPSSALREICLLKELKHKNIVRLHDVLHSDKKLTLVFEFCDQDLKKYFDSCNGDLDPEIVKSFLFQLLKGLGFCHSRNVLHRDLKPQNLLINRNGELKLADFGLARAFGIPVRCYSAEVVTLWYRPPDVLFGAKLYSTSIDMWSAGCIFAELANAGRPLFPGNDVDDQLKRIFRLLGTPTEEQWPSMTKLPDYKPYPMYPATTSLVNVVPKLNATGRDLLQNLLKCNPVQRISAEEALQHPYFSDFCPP
T1 sequence (Q03114 whole entry): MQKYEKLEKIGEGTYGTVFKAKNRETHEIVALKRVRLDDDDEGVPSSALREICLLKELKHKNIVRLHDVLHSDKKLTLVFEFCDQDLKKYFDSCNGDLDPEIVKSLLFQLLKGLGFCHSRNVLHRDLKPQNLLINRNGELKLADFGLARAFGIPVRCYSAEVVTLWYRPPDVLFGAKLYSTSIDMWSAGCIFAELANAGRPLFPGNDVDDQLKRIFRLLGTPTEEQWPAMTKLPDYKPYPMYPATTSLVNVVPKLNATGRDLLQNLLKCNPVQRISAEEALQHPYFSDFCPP

Aβ1-42-induced Cdk5 hyperactivity (Cdk5/P25 [1]): totally eliminated
Decrease of Cdk5 activity in neurons infected with Cdk5/P25 (Cdk5/P25 [2]): more than 90%
Substance: P5: 24 residue peptide derived from Cdk5 activator P35 (K254-A277 of SEQ ID NO: 16); Cdk5 inhibitory peptide (KEAFWDRCLSVINLMSSKMLQINA; listed as Homo sapiens)
Aβ-induced tau phosphorylation at Ser404 (tau phosphorylation; P5 infection): reduces phosphorylation at Thr 231 and Ser404; also recorded: significantly inhibits tau phosphorylation at S404 and T231
Aβ-induced tau phosphorylation at Thr231 (AT180) (tau phosphorylation; P5 infection): reduces phosphorylation at Thr 231 and Ser404; also recorded: significantly inhibits tau phosphorylation at S404 and T231
Aβ-induced tau phosphorylation at Ser422 (tau phosphorylation; P5 infection or roscovitine): only a modest affect on Ser 422; also recorded: slight decrease of tau phosphorylation at the Ser422 site, is not significant
Aβ-induced tau phosphorylation detected by AT8 and p-Ser199/202 antibodies (tau phosphorylation; P5 infection or roscovitine): baseline levels of tau phosphorylation; also recorded: restoring it to basal levels
